5 compounds from US12479840B2, “HMG-CoA reductase degradation inducing compound” (Uppthera, priority 2020, dated 2025) can be followed below.

SMILES strings stand for the structures. Where only a bound is given, the exact number is not on record here.

The assay addresses T1, HMG-CoA reductase (Homo sapiens, UniProt P04035).
T1 construct: endogenous in cells; host or cells: HepG2 (Korea Cell Line Bank)
T1 sequence (P04035 1-888): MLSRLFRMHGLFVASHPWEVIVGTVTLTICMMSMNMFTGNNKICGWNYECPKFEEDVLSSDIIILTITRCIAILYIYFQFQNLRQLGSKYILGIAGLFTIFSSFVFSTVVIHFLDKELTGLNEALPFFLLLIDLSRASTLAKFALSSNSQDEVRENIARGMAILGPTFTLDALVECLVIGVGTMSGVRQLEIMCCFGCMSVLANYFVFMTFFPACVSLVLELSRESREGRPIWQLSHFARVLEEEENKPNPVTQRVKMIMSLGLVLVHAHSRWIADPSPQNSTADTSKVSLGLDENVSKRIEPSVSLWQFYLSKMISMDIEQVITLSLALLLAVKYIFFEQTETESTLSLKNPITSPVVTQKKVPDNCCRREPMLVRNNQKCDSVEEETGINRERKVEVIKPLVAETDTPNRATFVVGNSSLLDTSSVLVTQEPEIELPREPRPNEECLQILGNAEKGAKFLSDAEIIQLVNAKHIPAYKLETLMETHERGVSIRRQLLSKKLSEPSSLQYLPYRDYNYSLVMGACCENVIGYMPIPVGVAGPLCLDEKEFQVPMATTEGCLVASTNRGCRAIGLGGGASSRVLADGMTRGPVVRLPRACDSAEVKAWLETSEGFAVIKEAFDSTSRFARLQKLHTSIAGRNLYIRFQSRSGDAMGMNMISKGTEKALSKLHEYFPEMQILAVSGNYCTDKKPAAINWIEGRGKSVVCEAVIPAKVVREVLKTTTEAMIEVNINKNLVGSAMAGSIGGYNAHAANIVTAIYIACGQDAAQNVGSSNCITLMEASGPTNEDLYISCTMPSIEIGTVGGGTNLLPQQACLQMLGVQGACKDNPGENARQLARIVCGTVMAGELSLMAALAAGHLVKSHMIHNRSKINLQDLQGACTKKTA
Put plainly: HMG-CoA reductase (HMGCR) degradation in HepG2 cells by western blotting. It is filed as cell-based. Conditions: treated for 18 hours, ratio of HMG-CoA reductase to GAPDH, read-out: DC50. As for the experimental part:
HepG2, a human liver cancer cell line, was purchased from the Korea Cell Line Bank (KCLB), Seoul, Korea. The passage in cell culture was maintained at P105 to P110.
The compounds of the present invention were completely dissolved in DMSO and used in the experiment. 2×10^5 cells were seeded for each well of a 12-well plate (SPL), and the cells were cultured in the culture medium in a total volume of 2 ml. Each of the compounds of the present invention and comparative compounds was diluted three folds from the highest concentration of 3 μM to the lowest concentration in 10 points and treated for 18 hours.
Each of the compounds the present invention and comparative compounds was diluted three folds from the highest concentration of 3 μM to the lowest concentration of […] in 10 points and was treated for 18 hours.
For SDS-PAGE and Western blotting, 1×RIPA lysis buffer (Rockland, Cat. No. MB-030-0050; Lot no. 39751), 100× Protease Inhibitor Cocktail (Quartett, Cat. No. PPI1015; Lot no. PCO50038424), Pierce™ BCA protein assay kit (ThermoScientific, Cat. No. 23225; Lot no. UC276876), albumin standard (ThermoScientific, Cat. No. 23209; Lot no. UB269561), 4-15% Mini-PROTEAN TGX stain-free gel (Bio-rad, Cat. No. 4568085; Lot no. L007041B), 10× Tris/Glycine/SDS buffer (Bio-rad, Cat. No. 1610732; Lot no. 10000044375B); 10×TBS (Bio-rad, Cat. No. 1706435; Lot no. 1000045140B), 10% Tween 20 (Cat. No. 1610781; Lot no. L004152B), Color protein standard broad range (NEB, Cat. No. P7719S; Lot no. 10040349), 4× Laemmli sample buffer (Bio-rad, Cat. No. 1610747; Lot no. L004133B), β-mercaptoethanol (Sigma-Aldrich, Cat. No. M3148; Lot no. 60-24-2), SuperBlock™ T20 (TBS) blocking buffer (ThermoScientific, Cat. No. 37536; Lot no. UC282578), 1M sodium azide solution (Sigma-Aldrich, Cat. No. 08591-1 mL-F; Lot no. BCBV4989), α-Rabbit pAb to Ms IgG (abcam, Cat. No. ab97046; Lot no. GR3252115-1), α-Goat pAb to Rb IgG (CST, Cat. No. 7074S; Lot no. 28), α-GAPDH (abcam, Cat. No. ab8245), α-HMGCR (GeneTex, Cat. No. GTX54088; Lot no. 821903509), ECL™ Prime western blotting reagents (GE Healthcare, Cat. No. RPN2232; Lot no. 17001655), Ponceau S solution (Sigma-Aldrich, Cat. No. P7170; Lot no. SLBV4112), Difco™ Skim milk (BD, Cat. No. 232100; Lot no. 8346795), and iBlot® 2 NC Regular stacks (Invitrogen, Cat. No. IB23001; Lot no. 2NR110619-02), were used.
For cell harvesting, the cells were first separated from the plate using trypsin and then washed with the medium and PBS. Specifically, the medium was suctioned off and washed with 1 mL of PBS, and PBS was suctioned off. The cells were treated with 0.5 mL TrypLE™ Express at 37° C. for 7 minutes to separate the cells, and then 0.5 mL of complete medium was added to collect 1 mL of cell culture solution. Then, 1 mL of the cell collection solution was centrifuged at 8,000 rpm for 120 seconds, and the supernatant was removed. After washing with 0.2 mL of PBS, the PBS was removed.
For cell lysis, a lysis buffer was added and cell debris was removed to obtain a cell lysate. Specifically, the cells were treated with 70 μL of 1×RIPA buffer containing a protease inhibitor and incubated for 30 minutes on ice. Then, the cells were centrifuged at 4° C. and 15,000 rpm for 10 minutes to obtain a cell lysate.
Then, a standard curve was obtained using the BCA assay, and the protein mass in the lysate was quantified by substituting the curve. The mixture was incubated at 37° C. for 30 minutes using 20 μL of standard or sample solution, and 200 μL of BCA or Bradford solution, and measured at 562 nm absorbance. Samples were prepared by adding 4× sample buffer so that the quantity of protein added to each well was 15 μg.
Sodium dodecyl sulfate polyacrylamide gel electrophoresis (SDS-PAGE) was performed by setting a running time of 100 minutes at 120 V on a 4-15% Mini-PROTEAN TGX stain-free gel (15 well). Transferring was performed on iBlot® 2 NC Mini stacks at P0 mode of the dry blotting system. […]
A word on the DC50: it is the concentration at which degradation of the target reaches its halfway point. On to `Cc1ncsc1-c1ccc(CNC(=O)[C@@H]2C[C@@H](O)CN2C(=O)[C@@H](NC(=O)COCCNC(=O)CCC(C)(C)C(=O)O[C@H]2C[C@@H](C)C=C3C=C[C@H](C)[C@H](CC[C@@H]4C[C@@H](O)CC(=O)O4)[C@H]32)C(C)(C)C)cc1` [Compound 8, (1S,3R,7S,8S,8aR)-8-(2-((2R,4R)-4-hydroxy-6-oxotetrahydro-2H-pyran-2-yl)ethyl)-3,7-dimethyl-1,2,3,7,8,8a-hexahydronaphthalen-1-yl 5-((2-(2-(((S)-1-((2S,4R)-4-hydroxy-2-((4-(4-methylthiazol-5-yl)benzyl)carbamoyl)pyrrolidin-1-yl)-3,3-dimethyl-1-oxobutan-2-yl)amino)-2-oxoethoxy)ethyl)amino)-2,2-dimethyl-5-oxopentanoate], for which the DC50 was below 50 nM.
In the case of `C[C@H]1C=C2C=C[C@H](C)[C@H](CC[C@@H]3C[C@@H](O)CC(=O)O3)[C@H]2[C@@H](OC(=O)N(C)CCOCCOCCNc2cccc3c2C(=O)N(C2CCC(=O)NC2=O)C3=O)C1` (stereo partly drawn) [Compound 83, (1S,3R,7S,8S,8aR)-8-(2-((2R,4R)-4-hydroxy-6-oxotetrahydro-2H-pyran-2-yl)ethyl)-3,7-dimethyl-1,2,3,7,8,8a-hexahydronaphthalen-1-yl (2-(2-(2-((2-(2,6-dioxopiperidin-3-yl)-1,3-dioxoisoindolin-4-yl)amino)ethoxy)ethoxy)ethyl)(methyl)carbamate], the DC50 is below 50 nM.
Under `Cc1ncsc1-c1ccc(CNC(=O)[C@@H]2C[C@@H](O)CN2C(=O)[C@@H](NC(=O)C2(F)CC2)C(C)(C)C)c(OCCOCCOCCNC(=O)O[C@H]2C[C@@H](C)C=C3C=C[C@H](C)[C@H](CC[C@@H]4C[C@@H](O)CC(=O)O4)[C@H]32)c1` [Compound 24, (1S,3R,7S,8S,8aR)-8-(2-((2R,4R)-4-hydroxy-6-oxotetrahydro-2H-pyran-2-yl)ethyl)-3,7-dimethyl-1,2,3,7,8,8a-hexahydronaphthalen-1-yl (2-(2-(2-(2-(((2S,4R)-1-((S)-2-(1-fluorocyclopropane-1-carboxamido)-3,3-dimethylbutanoyl)-4-hydroxypyrrolidine-2-carboxamido)methyl)-5-(4-methylthiazol-5-yl)phenoxy)ethoxy)ethoxy)ethyl)carbamate] stands below 50 nM; under `C[C@H]1C=C2C=C[C@H](C)[C@H](CC[C@@H]3C[C@@H](O)CC(=O)O3)[C@H]2[C@@H](OC(=O)NCCCCCCCCNc2cccc3c2C(=O)N(C2CCC(=O)NC2=O)C3=O)C1` (stereo partly drawn) [Compound 61, (1S,3R,7S,8S,8aR)-8-(2-((2R,4R)-4-hydroxy-6-oxotetrahydro-2H-pyran-2-yl)ethyl)-3,7-dimethyl-1,2,3,7,8,8a-hexahydronaphthalen-1-yl (8-((2-(2,6-dioxopiperidin-3-yl)-1,3-dioxoisoindolin-4-yl)amino)octyl)carbamate], below 50 nM; under `CN[C@@H](C)C(=O)N[C@H](C(=O)N1CCC[C@H]1c1nc(C(=O)c2cccc(OCCOCCOCCOCCNC(=O)O[C@H]3C[C@@H](C)C=C4C=C[C@H](C)[C@H](CC[C@@H]5C[C@@H](O)CC(=O)O5)[C@H]43)c2)cs1)C1CCCCC1` [Compound 32, (1S,3R,7S,8S,8aR)-8-(2-((2R,4R)-4-hydroxy-6-oxotetrahydro-2H-pyran-2-yl)ethyl)-3,7-dimethyl-1,2,3,7,8,8a-hexahydronaphthalen-1-yl (2-(2-(2-(2-(3-(2-((S)-1-((S)-2-cyclohexyl-2-((S)-2-(methylamino)propanamido)acetyl)pyrrolidin-2-yl)thiazole-4-carbonyl)phenoxy)ethoxy)ethoxy)ethoxy)ethyl)carbamate], below 50 nM.
